Measured values: PMC10866072, “Design, synthesis, molecular modelling and biological evaluation of novel 6-amino-5-cyano-2-thiopyrimidine derivatives as potent anticancer agents against leukemia and apoptotic inducers” (Journal of Enzyme Inhibition and Medicinal Chemistry, 2024)

Columns and labels:
NCI/ADR-RES = format: cell-based
HL-60(TB) = format: cell-based
HCT-15 = format: cell-based
UACC-62 = format: cell-based
NCI-H23 = format: cell-based
PC-3 = format: cell-based
OVCAR-3 = format: cell-based
MOLT-4 = format: cell-based
leukaemia SR cells = test: Cell cycle analysis (propidium iodide, flow cytometry); format: cell-based, human; details: 48 h treatment
Method: (§1) Compound 1c was selected as a potent candidate, its effect on cell cycle phases of HL60 and leukaemia SR cells was investigated using propidium iodide staining and flow cytometric analysis according to the cell cycle kit (Abcam ®, ab139418-)[90]^,[91]^. Briefly, HL60 and leukaemia SR cells were cultured under optimum conditions. Afterwards, cells were treated by compound 1c for 48 h. Then, they were harvested, washed with PBS, and cell fixation was performed using ethanol on ice. Additionally, cells were pelleted at 500 xg for 5 min and supernatant was gently aspirated. Furthermore, fixed cells were washed by phosphate-buffered saline (PBS) and resuspended in 200 µl 1 x propidium iodide + RNAse staining solution and incubated in dark for 30 min. Finally, stained cells were tested by flow cytometer using FACSCalibur (Becton Dickinson Biosciences, CA, USA). Finally, Cell Quest software (Becton Dickinson Biosciences) was used to determine cell cycle distribution.

HL60 cells = test: as above; format: cell-based, human; details: HL60, 48 h treatment
Method: as §1

A549/ATCC = format: cell-based
EKVX = format: cell-based
MDA-MB-435 = format: cell-based
IGROV1 = format: cell-based
[1] = MTT cytotoxicity on normal cells; format: cell-based; details: human, WI-38 cells (normal lung fibroblasts), WI-38 normal cells, mean ± SD of three experiments, read-out: IC50 (cytotoxic activity)
Method: The American Type Culture Collection provided WI-38 cells (normal lung cells). The cells were grown in DMEM with 10% heat-inactivated FBS (Hyclone), 10 µg/ml of insulin (Sigma), and 1% penicillin-streptomycin. The remaining chemicals and reagents were all from Sigma or Invitrogen. The MTT test was used to evaluate cytotoxicity, as described previously. Graph pad Prism software (San Diego, CA) was used to estimate the 50% inhibitory concentration (IC50) from dose response curve graphic plots for each conc.

T-47D = format: cell-based
MCF7 = format: cell-based
UO-31 = format: cell-based
[2] = tested on: caspase 3 level in HL60 cells; test: Caspase 3 ELISA; format: cell-based, human; details: HL 60 cells
Method: (§2) One of the most significant downstream caspases, Caspase-3, is referred to as an effector caspase[94]^,[95]. For further analysis, the effect of compound 1c on caspase 3 enzyme level was measured using ELISA kit (Invitrogen, Catalog # KHO1091) according to the manufacturer’s instructions. Briefly, 100 µl of the standard diluent buffer to the zero standard wells. Additionally, 100 µl of standards and controls or diluted samples were added to the appropriate microtiter wells, then wells were covered with plate cover and incubated for 2 h at R.T. Afterwards, wells were aspirated gently, washed with washing buffer 4 times. Furthermore, 100 µl of caspase 3 detection antibody was added into each well except the blank wells, and the plate was covered and incubated for 1 h at R.T. Then, the aspiration and washing steps were repeated again. Finally, 100 µl of the stabilised chromogen solution were added, plate was incubated for 30 min at R.T., stop solution was used to stop the reaction and the developed colour was measured at wave length 450 nm using plat ELISA reader.

[3] = tested on: caspase 3 level in leukaemia SR cells; test: Caspase 3 ELISA; format: cell-based, human
Method: as §2

[4] = tested on: Prostate cancer cell lines; test: NCI-60 five-dose, subpanel
Source text: A measure of a compound’s selectivity for a given cell line is the ratio created by dividing the full panel mean graph midpoints (MG-MID) concentration by the individual subpanel MG-MID concentrations (obtained as the average sensitivity of all the cell lines in a given subpanel to the test compound).
Assessment of selectivity of a compound depends on the ratio obtained by dividing the full panel MID ^a by their individual subpanel MID ^b (µM) where MID^a is the average sensitivity of all cell lines towards the test agent (µM).

[5] = Homo sapiens, five-dose, read-out: LC50 (the source's name)
[6] = Homo sapiens, one dose 10^-5 M, 48 h
[7] = Homo sapiens, one dose 10^-5 M, 48 h, read-out: % growth

Question: For `N#Cc1c(N)nc(S)nc1-c1ccc(Cl)cc1Cl` [Compound 1c, 4-Amino-6–(2,4-dichlorophenyl)-2-mercaptopyrimidine-5-carbonitrile], which GI50 (NCI/ADR-RES; Homo sapiens, five-dose) is on record?
Answer: 0.7 µM

Question: What about the CC50 (NCI/ADR-RES; [5]) of the same compound?
Answer: > 100 µM

Question: And the cell growth percent at 10 µM (NCI/ADR-RES; [6])?
Answer: 37.9%

Question: What about the TGI (NCI/ADR-RES; five-dose) of the same compound?
Answer: 26.20 µM

Question: What about the GI50 (HL-60(TB); Homo sapiens, five-dose) of the same compound?
Answer: 0.08 µM

Question: And the CC50 (HL-60(TB); [5])?
Answer: > 100 µM

Question: And the % growth at 10 µM (HL-60(TB); [6])?
Answer: 5.3%

Question: What about the TGI (HL-60(TB); five-dose) of the same compound?
Answer: 1.82 µM

Question: And the GI50 (HCT-15; Homo sapiens, five-dose)?
Answer: 0.08 µM

Question: What about the CC50 (HCT-15; [5]) of the same compound?
Answer: 97.9 µM

Question: What about the activity at 10 µM (HCT-15; [7]) of the same compound?
Answer: 10.9%

Question: What about the TGI (HCT-15; five-dose) of the same compound?
Answer: 17.90 µM

Question: What about the GI50 (UACC-62; Homo sapiens, five-dose) of the same compound?
Answer: 13.8 µM

Question: And the CC50 (UACC-62; [5])?
Answer: 57.6 µM

Question: What about the % growth at 10 µM (UACC-62; [6]) of the same compound?
Answer: 62.7%

Question: What about the TGI (UACC-62; five-dose) of the same compound?
Answer: 28.20 µM

Question: And the GI50 (NCI-H23; Homo sapiens, five-dose)?
Answer: 13.1 µM

Question: And the CC50 (NCI-H23; [5])?
Answer: 60.9 µM

Question: And the activity at 10 µM (NCI-H23; [7])?
Answer: 76.1%

Question: What about the TGI (NCI-H23; five-dose) of the same compound?
Answer: 28.30 µM

Question: And the GI50 (PC-3; Homo sapiens, five-dose)?
Answer: 11.1 µM

Question: And the CC50 (PC-3; [5])?
Answer: > 100 µM

Question: And the percent cell growth at 10 µM (PC-3; [6])?
Answer: 49.8%

Question: What about the TGI (PC-3; five-dose) of the same compound?
Answer: 48.20 µM

Question: What about the GI50 (OVCAR-3; Homo sapiens, five-dose) of the same compound?
Answer: 18.1 µM

Question: And the CC50 (OVCAR-3; [5])?
Answer: > 100 µM

Question: And the % growth at 10 µM (OVCAR-3; [6])?
Answer: 17.1%

Question: What about the TGI (OVCAR-3; five-dose) of the same compound?
Answer: 47.60 µM

Question: And the GI50 (MOLT-4; Homo sapiens, five-dose)?
Answer: 0.7 µM

Question: And the CC50 (MOLT-4; [5])?
Answer: > 100 µM

Question: What about the activity at 10 µM (MOLT-4; [7]) of the same compound?
Answer: 6.11%

Question: What about the TGI (MOLT-4; five-dose) of the same compound?
Answer: 43.90 µM

Question: What about the “% cells in G1 (%DIP G1)” value (leukaemia SR cells) of the same compound?
Answer: 55.22%

Question: What about the “% cells in S phase” value (leukaemia SR cells) of the same compound?
Answer: 31.89%

Question: And the “% cells in G0/G1 (%DIP G1)” value (HL60 cells)?
Answer: 57.37%

Question: What about the “% cells in S phase” value (HL60 cells) of the same compound?
Answer: 33.07%

Question: What about the GI50 (A549/ATCC; Homo sapiens, five-dose) of the same compound?
Answer: 25.8 µM

Question: What about the LC50 (A549/ATCC; Homo sapiens, five-dose) of the same compound?
Answer: > 100 µM

Question: What about the % growth at 10 µM (A549/ATCC; [6]) of the same compound?
Answer: 90.1%

Question: And the TGI (A549/ATCC; five-dose)?
Answer: 77.40 µM

Question: What about the GI50 (EKVX; Homo sapiens, five-dose) of the same compound?
Answer: 14.3 µM

Question: And the LC50 (EKVX; Homo sapiens, five-dose)?
Answer: 62.6 µM

Question: What about the % cell growth at 10 µM (EKVX; [6]) of the same compound?
Answer: 98.6%

Question: And the TGI (EKVX; five-dose)?
Answer: 29.90 µM

Question: What about the GI50 (MDA-MB-435; Homo sapiens, five-dose) of the same compound?
Answer: 10.5 µM

Question: And the CC50 (MDA-MB-435; [5])?
Answer: > 100 µM

Question: And the activity at 10 µM (MDA-MB-435; [7])?
Answer: 25.3%

Question: And the TGI (MDA-MB-435; five-dose)?
Answer: 38.00 µM

Question: And the GI50 (IGROV1; Homo sapiens, IGROV-1, five-dose)?
Answer: 19.2 µM

Question: And the CC50 (IGROV1; Homo sapiens, IGROV-1, five-dose, read-out: LC50 (the source's name))?
Answer: 87.6 µM

Question: What about the activity at 10 µM (IGROV1; Homo sapiens, IGROV-1, one dose 10^-5 M, 48 h, read-out: % growth) of the same compound?
Answer: 65.7%

Question: What about the TGI (IGROV1; five-dose) of the same compound?
Answer: 41.00 µM

Question: What about the IC50 [1] of the same compound?
Answer: 43.6 ± 1.2 µM

Question: What about the GI50 (T-47D; Homo sapiens, T47D, five-dose) of the same compound?
Answer: 9.87 µM

Question: And the CC50 (T-47D; Homo sapiens, T47D, five-dose, read-out: LC50 (the source's name))?
Answer: > 100 µM

Question: What about the activity at 10 µM (T-47D; Homo sapiens, T47D, one dose 10^-5 M, 48 h, read-out: % growth) of the same compound?
Answer: 54.5%

Question: What about the TGI (T-47D; five-dose) of the same compound?
Answer: 32.30 µM

Question: And the GI50 (MCF7; Homo sapiens, five-dose)?
Answer: 0.12 µM

Question: And the CC50 (MCF7; [5])?
Answer: > 100 µM

Question: And the activity at 10 µM (MCF7; [7])?
Answer: 31.6%

Question: What about the TGI (MCF7; five-dose) of the same compound?
Answer: 31.10 µM

Question: What about the % cell growth at 10 µM (UO-31; Homo sapiens, UO-31, 48 h, one dose 10^-5 M, 48 h) of the same compound?
Answer: 63.5%

Question: What about the GI50 (UO-31; Homo sapiens, five-dose) of the same compound?
Answer: 14.7 µM

Question: What about the CC50 (UO-31; [5]) of the same compound?
Answer: 53.6 µM

Question: And the TGI (UO-31; five-dose)?
Answer: 28.10 µM

Question: What about the “caspase 3 level increase vs untreated control” value [2] of the same compound?
Answer: 5.6 folds

Question: What about the “caspase 3 level increase vs untreated control” value [3] of the same compound?
Answer: 3.4 folds

Question: And the GI50 ([4]; Homo sapiens, read-out: GI50 Subpanel MID^b)?
Answer: 13 µM

Question: What about the “Selectivity ratio (full panel MID^a / subpanel MID^b, GI50 level)” value ([4]; prostate cancer) of the same compound?
Answer: 0.99
